From EP4289427A1, “DIHYDRO[1,8]NAPHTHYRIDIN-7-ONE AND PYRIDO[3,2-B][1,4]OXAZIN-3-ONE FOR USE IN TREATING CANCER, AND METASTASES IN PARTICULAR” (Anagenesis Biotechnologies, priority 2022, dated 2023)
pIC50: −log10 of the molar value.

What was measured:
4T1 cells [1] = assay: Cytotoxicity assay (CellTiter-Glo 2.0) on 4T1 cells; type: cell-based, Mouse; settings: incubation 2 days; for pIC50: Mus musculus, 48 h
Summary of the method: (§1)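 Compound-treated cells, incubation time varying by line; CellTiter-Glo 2.0 ATP luminescence; relative IC50.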

MDA-MB-231 cells [2] = assay: Cytotoxicity assay (CellTiter-Glo 2.0) on MDA-MB-231 cells; type: cell-based, Human; settings: incubation 3 days; for pIC50: Homo sapiens, 72 h
Summary of the method: as §1

RD cells [3] = assay: Cytotoxicity assay (CellTiter-Glo 2.0) on RD cells; type: cell-based, Human; settings: for pIC50: Homo sapiens
Summary of the method: as §1

RD cells [4] = assay: Differentiation of RD cells into myotubes (alpha-actinin staining); type: cell-based, Human; settings: 7 days, Figure 3
Protocol: RD cells are cancer cells of muscle origin that arose from myogenic precursors that fail to complete muscle differentiation. One strategy to stop their progression is to differentiate them into myotubes.
To allow differentiation, RD cells were seeded at a density of 3500 cells/well in a 384-well plate coated with collagen type I, in DMEM (4,5g/L glucose) with L-Gln (cat.no. 41965-039 from Gibco) supplemented with 5% of knockout serum replacement (cat.no. 10828-028 from Gibco), 1% PenStrep (Gibco), 1% MEM NEAA (Gibco) and 0.1 mM 2-mercaptoethanol (Gibco) (hereafter "K5 medium"). Compounds to be tested were then added onto the cells and incubated for 7 days at 37°C. On day 7, cells were fixed with 4% paraformaldehyde solution and immunostained for α-actinin (cat.no. EA-53 from Sigma, at 1/30000).

HUVECs = assay: Tube formation assay (anti-angiogenic activity); type: cell-based, human; settings: incubation 16 to 18 hours; for pIC50: Homo sapiens, HUVEC
Summary of the method: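 HUVECs plated at 5000 cells/well on reduced growth factor basement membrane matrix, then exposed to compounds for 16 to 18 hours at 37°C. Cells stained with calcein-AM; tube networks imaged by confocal fluorescence microscopy and quantified.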

EoL-1 cells = assay: Cytotoxicity assay (CellTiter-Glo 2.0) on EoL-1 cells; type: cell-based, Human; settings: incubation 1 day; for pIC50: Homo sapiens, EOL1, 24 h
Summary of the method: as §1

4T1 cells [5] = assay: Epithelial-mesenchymal transition marker expression by qRT-PCR; type: cell-based, Mouse; set-up: key: ↗: increased expression; ↘: decreased expression; =: unchanged expression levels; settings: 24 hours, expression normalized against RPL13
From the text: The epithelial-mesenchymal transition (hereafter "EMT") is a process by which epithelial cells lose their cell polarity and cell-cell adhesion while gaining migratory and invasive properties to become mesenchymal stem cells. EMT is commonly measured by quantifying both epithelial and mesenchymal marker's expression by quantitative reverse-transcription polymerase chain reaction (hereafter "qRT-PCR"). EMT inhibition is observed when epithelial markers are stable or increased while mesenchymal markers are decreased.
4T1 cells were treated with compounds to be tested or DMSO for 24 hours. 4T1 cells were then harvested directly in NucleoZol lysis buffer (cat. no. 740404.200 from Macherey-Nagel), according to the manufacturer's instructions. Total RNA was extracted using the NucleoSpin RNA set for NucleoZol (cat. no. 740406.50 from Macherey-Nagel). The quantity and purity of RNA was determined using a Quickdrop (Molecular Devices). RT-PCR was performed on 500 ng total RNA using iScript gDNA clear cDNA synthesis Kit (cat.no. 1725035 from Biorad). The qPCR was run on a QuantStudio 5 real time thermocycler (Applied Biosystems), with PowerUp SYBR Green Master Mix (cat.no. A25742 from Fisher Scientific) and the primers listed in Table 16.
Expression data of EMT markers have been normalized against expression data of the housekeeping gene RPL13.

4T1 cells [6] = assay: Colony forming (clonogenic) assay; type: cell-based, Mouse; settings: 6 days of treatment, Figure 2
Protocol: Cancer stem cells are characterized by their ability to undergo virtually unlimited divisions. Colony forming assay (or clonogenic assay) is an in vitro assay designed to assess capability of single cells to grow into large colonies through clonal expansion.
4T1 cells were seeded at a density of 500 cells per well of six-well plates in 4T1 medium. Compounds to be tested were added 24 hours after seeding. After 6 days of treatment, the cells were fixed in 4% PFA and stained with 1% aqueous solution of crystal violet. Pictures of the entire wells were acquired, and the area of the positives colonies was evaluated by ImageJ software (Wayne Rasband; NIH).

MDA-MB-231 cells [7] = assay: Scratch (wound healing) assay, cell migration; type: cell-based, Human; settings: 24 hours, Figure 1
Protocol: Cell migration is involved in several pathological cancer processes such as tumor invasion, neoangiogenesis and metastasis. Scratch (or wound healing) assay is a method to study two-dimensional cell migration in vitro. It is based on the observation that cells growing in a monolayer migrate to reestablish cell contacts after a mechanical scratch wound.
The MDA-MB-231 cells were seeded into a 24-well plate and grown to confluent density. A scrape was made in each well using a pipette tip. Then, the cells monolayers were incubated for 2 hours with 5 µg/ml mitomycin C to stop cell proliferation. The cells were treated with the compounds to be tested for 24 hours. The cells were stained using CellMask Green actin tracking stain (cat.no. A57246 from Fisher Scientific) at time zero and at endpoint. Pictures were acquired using a fluorescence microscope (IXM from Molecular Device). The scratch area was measured with the ImageJ software. The recovery of the scratch area was calculated as a percentage of the scratch area at time zero.

| SMILES | pIC50 (4T1 cells [1]) | Cytotoxicity (4T1 cells [1]) | pIC50 (MDA-MB-231 cells [2]) | Cytotoxicity (MDA-MB-231 cells [2]) | Cytotoxicity (RD cells [3]; 2 day-treatment) | Cytotoxicity (RD cells [3]; 4 day-treatment) | pIC50 (RD cells [3]; 48 h, 2 day-treatment) | pIC50 (RD cells [3]; 96 h, 4 day-treatment) | differentiation into myotubes (RD cells [4]) | pIC50 (HUVECs) | Angiogenesis inhibition (HUVECs) | pIC50 (EoL-1 cells) | Cytotoxicity (EoL-1 cells) | Epithelial markers E-cadherin (4T1 cells [5]) | Epithelial markers EpCAM (4T1 cells [5]) | Mesenchymal markers Fibronectin (4T1 cells [5]) | Mesenchymal markers Vimentin (4T1 cells [5]) | colony growth (4T1 cells [6]) | migration in the scratch assay (MDA-MB-231 cells [7]) |
| --- | --- | --- | --- | --- | --- | --- | --- | --- | --- | --- | --- | --- | --- | --- | --- | --- | --- | --- | --- |
| CSc1cc(Oc2ccnc3c2CCC(=O)N3)ccc1NC(=O)Nc1cc(C(C)(C)C)nn1-c1cccc(F)c1 [Compound 013, 1-[5-tert-butyl-2-(3-fluorophenyl)pyrazol-3-yl]-3-[2-methylsulfanyl-4-[(7-oxo-6,8-dihydro-5H-1,8-naphthyridin-4-yl)oxy]phenyl]urea] | > 6.00 | +++ (cytotoxicity ≥ 85%) | 5.30 to 6.00 | ++ (50% ≤ cytotoxicity < 85%) | ++ (50% ≤ cytotoxicity < 85%) | ++ (50% ≤ cytotoxicity < 85%) | 5.30 to 6.00 | 5.00 to 5.30 | dose-dependent differentiation into myotubes | > 7.00 | +++ (angiogenesis inhibition ≥ 80%) | 8.00 to 9.00 | +++ (cytotoxicity ≥ 85%) |  |  |  |  |  |  |
| Cc1ccc(-n2nc(C(C)(C)C)cc2NC(=O)Nc2ccc(Oc3ccnc4c3CCC(=O)N4)cc2C(F)(F)F)cn1 [Compound 017, 1-[5-tert-butyl-2-(6-methyl-3-pyridyl)pyrazol-3-yl]-3-[4-[(7-oxo-6,8-dihydro-5H-1,8-naphthyridin-4-yl)oxy]-2-(trifluoromethyl)phenyl]urea] | > 6.00 | +++ (cytotoxicity ≥ 85%) | 5.30 to 6.00 | ++ (50% ≤ cytotoxicity < 85%) | ++ (50% ≤ cytotoxicity < 85%) | +++ (cytotoxicity ≥ 85%) | 5.30 to 6.00 | 5.30 to 6.00 |  | > 7.00 | +++ (angiogenesis inhibition ≥ 80%) | 8.00 to 9.00 | ++ (50% ≤ cytotoxicity < 85%) | ↗ | ↗ | ↘ | ↘ | inhibition of colony growth | inhibition of their migration |
| CC(C)(C)c1cc(NC(=O)Nc2ccc(Oc3ccnc4c3CCC(=O)N4)cc2C(F)(F)F)n(-c2cncc(F)c2)n1 [Compound 016, 1-[5-tert-butyl-2-(5-fluoro-3-pyridyl)pyrazol-3-yl]-3-[4-[(7-oxo-6,8-dihydro-5H-1,8-naphthyridin-4-yl)oxy]-2-(trifluoromethyl)phenyl]urea] | > 6.00 | +++ (cytotoxicity ≥ 85%) | 5.30 to 6.00 | ++ (50% ≤ cytotoxicity < 85%) | ++ (50% ≤ cytotoxicity < 85%) | ++ (50% ≤ cytotoxicity < 85%) | 5.30 to 6.00 | 5.00 to 5.30 |  | > 7.00 | +++ (angiogenesis inhibition ≥ 80%) | 7.00 to 8.00 | +++ (cytotoxicity ≥ 85%) | ↗ | ↗ | ↘ | ↘ | inhibition of colony growth | inhibition of their migration |
| CSc1cc(Oc2ccnc3c2OCC(=O)N3)ccc1NC(=O)Nc1cc(C(C)(C)C)on1 [Compound 021, 1-(5-tert-butylisoxazol-3-yl)-3-[2-methylsulfanyl-4-[(3-oxo-4H-pyrido[3,2-b][1,4]oxazin-8-yl)oxy]phenyl]urea] | 5.30 to 6.00 | ++ (50% ≤ cytotoxicity < 85%) | 5.30 to 6.00 | ++ (50% ≤ cytotoxicity < 85%) | ++ (50% ≤ cytotoxicity < 85%) | ++ (50% ≤ cytotoxicity < 85%) | 5.30 to 6.00 | 5.30 to 6.00 | dose-dependent differentiation into myotubes | 6.30 to 7.00 | +++ (angiogenesis inhibition ≥ 80%) | > 9.00 | +++ (cytotoxicity ≥ 85%) |  |  |  |  |  |  |
| CSc1cc(Oc2ccnc3c2OCC(=O)N3)ccc1NC(=O)Nc1cc(C(C)(C)C)nn1-c1cncc(F)c1 [Compound 018, 1-[5-tert-butyl-2-(5-fluoro-3-pyridyl)pyrazol-3-yl]-3-[2-methylsulfanyl-4-[(3-oxo-4H-pyrido[3,2-b][1,4]oxazin-8-yl)oxy]phenyl]urea] | > 6.00 | +++ (cytotoxicity ≥ 85%) | 5.30 to 6.00 | ++ (50% ≤ cytotoxicity < 85%) | + (20 % ≤ cytotoxicity < 50%) | ++ (50% ≤ cytotoxicity < 85%) | 5.30 to 6.00 | 5.30 to 6.00 | dose-dependent differentiation into myotubes | > 7.00 | +++ (angiogenesis inhibition ≥ 80%) | 8.00 to 9.00 | +++ (cytotoxicity ≥ 85%) | ↗ | ↗ | ↘ | ↘ |  |  |
| Cc1ccc(-n2nc(C(C)(C)C)cc2NC(=O)Nc2ccc(Oc3ccnc4c3OCC(=O)N4)cc2C(F)(F)F)cn1 [Compound 040, 1-[5-tert-butyl-2-(6-methyl-3-pyridyl)pyrazol-3-yl]-3-[4-[(3-oxo-4H-pyrido[3,2-b][1,4]oxazin-8-yl)oxy]-2-(trifluoromethyl)phenyl]urea] | > 6.00 | +++ (cytotoxicity ≥ 85%) | 5.30 to 6.00 | ++ (50% ≤ cytotoxicity < 85%) | ++ (50% ≤ cytotoxicity < 85%) | ++ (50% ≤ cytotoxicity < 85%) | 5.00 to 5.30 | 5.00 to 5.30 |  | 6.30 to 7.00 | +++ (angiogenesis inhibition ≥ 80%) | 7.00 to 8.00 | ++ (50% ≤ cytotoxicity < 85%) |  |  |  |  |  | inhibition of their migration |
| CC(C)(C)c1cc(NC(=O)Nc2ccc(Oc3ccnc4c3CCC(=O)N4)cc2C(F)(F)F)on1 [Compound 023, 1-(3-tert-butylisoxazol-5-yl)-3-[4-[(7-oxo-6,8-dihydro-5H-1,8-naphthyridin-4-yl)oxy]-2-(trifluoromethyl)phenyl]urea] | 5.30 to 6.00 | +++ (cytotoxicity ≥ 85%) | 5.30 to 6.00 | ++ (50% ≤ cytotoxicity < 85%) | ++ (50% ≤ cytotoxicity < 85%) | ++ (50% ≤ cytotoxicity < 85%) | 5.30 to 6.00 | 5.30 to 6.00 |  | 6.30 to 7.00 | +++ (angiogenesis inhibition ≥ 80%) | 8.00 to 9.00 | +++ (cytotoxicity ≥ 85%) | ↗ | = | ↘ | ↘ |  |  |
